Results as given in patent US20240116985A1, “STAPLED PEPTIDES AND METHODS THEREOF” (priority 2020, published 2024).
pIC50: −log10 of the molar value. Non-standard residues stand in square brackets, D forms with d. Residues, ends and D or L forms follow the SMILES beside them. Bta = N[C@@H](Cc1csc2ccccc12)C(=O)O; tBuAla = CC(C)(C)C[C@H](N)C(=O)O; 3Thi = N[C@@H](Cc1ccsc1)C(=O)O; αMeP = C[C@@]1(C(=O)O)CCCN1; Aib = CC(C)(N)C(=O)O

molecular target: T1, full-length beta-Catenin (Uniprot ID P35222) (Homo sapiens, UniProt P35222); assay: Fluorescence polarization IC50 (beta-catenin / 5FAM-TCF4 10-53 competition); type: binding; conditions: beta-Catenin FP IC50 (nM), fluorescence polarization
T1 construct: 10 nM full-length beta-Catenin (Uniprot ID P35222)
T1 sequence (P35222 1-781): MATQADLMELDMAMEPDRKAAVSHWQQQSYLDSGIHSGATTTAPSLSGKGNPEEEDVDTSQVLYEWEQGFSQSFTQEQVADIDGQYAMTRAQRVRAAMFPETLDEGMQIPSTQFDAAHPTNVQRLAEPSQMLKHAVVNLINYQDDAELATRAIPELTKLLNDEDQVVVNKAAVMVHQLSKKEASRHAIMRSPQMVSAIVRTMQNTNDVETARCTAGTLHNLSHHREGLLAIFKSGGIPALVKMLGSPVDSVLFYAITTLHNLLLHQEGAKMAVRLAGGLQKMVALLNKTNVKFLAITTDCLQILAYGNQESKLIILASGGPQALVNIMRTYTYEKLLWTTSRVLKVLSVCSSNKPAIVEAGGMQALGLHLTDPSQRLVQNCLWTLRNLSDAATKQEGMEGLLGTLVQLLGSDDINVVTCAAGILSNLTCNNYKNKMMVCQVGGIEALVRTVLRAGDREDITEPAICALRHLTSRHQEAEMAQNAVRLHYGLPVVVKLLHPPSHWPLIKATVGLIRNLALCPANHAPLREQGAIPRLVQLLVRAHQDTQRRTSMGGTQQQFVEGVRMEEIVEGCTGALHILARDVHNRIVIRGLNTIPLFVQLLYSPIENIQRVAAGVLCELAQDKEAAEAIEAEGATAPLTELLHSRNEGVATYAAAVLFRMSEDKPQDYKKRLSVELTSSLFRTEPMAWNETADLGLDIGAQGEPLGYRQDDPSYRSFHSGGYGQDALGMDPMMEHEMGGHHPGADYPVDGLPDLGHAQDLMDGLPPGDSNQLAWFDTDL

| Structure (SMILES) | IC50 [nM] |
| --- | --- |
| C[C@@H]1NC(=O)[C@H](C)NC(=O)[C@H](CC(=O)O)NC(=O)[C@H](CC(=O)O)NC(=O)C2(CCCC=CCCCOC(=O)N3CC[C@@](C(=O)N[C@@H](Cc4ccsc4)C(=O)N[C@@H](Cc4csc5ccccc45)C(=O)N[C@@H](Cc4c[nH]cn4)C(N)=O)(C3)NC(=O)[C@H](CCC(N)=O)NC(=O)[C@H](Cc3ccccc3)NC1=O)CCCC=CC[C@]1(CCCN1C(=O)Oc1ccccc1)C(=O)N[C@@H](CC(=O)O)C(=O)N[C@@H](CC(C)(C)C)C(=O)N2 (stereo partly drawn) [I-2326, CO2Ph-PL3-Asp-Npg-B5-Asp-Asp-Ala-Ala-Phe-Gln-PyrS2-3Thi-BztA-His-NH2] | 185 |

same assay, conditions: fluorescence polarization; read-out: beta-Catenin FP IC50

| Structure (SMILES) | pIC50 |
| --- | --- |
| CC(=O)N1CCC[C@]12CC=CCCCC1(CCCC=CCCCOC(=O)N3CC[C@@](C(=O)N[C@@H](Cc4ccsc4)C(=O)N[C@@H](Cc4csc5ccccc45)C(=O)N[C@@H](Cc4c[nH]c5ccccc45)C(N)=O)(C3)NC(=O)[C@H](CC(N)=O)NC(=O)[C@H](Cc3ccccc3)NC(=O)[C@H](C)NC(=O)[C@H](C)NC(=O)[C@H]([C@@H](C)O)NC(=O)[C@H](CC(N)=O)NC1=O)NC(=O)[C@H](CC(C)(C)C)NC(=O)[C@H](CC(=O)O)NC2=O (stereo partly drawn) [I-2138, Ac-PL3-Asp-Npg-B5-Asn-Thr-Ala-Ala-Phe-Asn-PyrS2-3Thi-BztA-Trp-NH2] | 5.99 |
| CC(=O)N1CCC[C@]12CC=CCCCC1(CCCC=CCCCCCC[C@@](C)(C(=O)N[C@@H](Cc3ccsc3)C(=O)N[C@@H](Cc3csc4ccccc34)C(=O)N[C@@H](CCC(N)=O)C(N)=O)NC(=O)[C@H](CC(N)=O)NC(=O)[C@H](Cc3ccccc3)NC(=O)[C@H](C)NC(=O)[C@H](C)NC(=O)[C@H](CC(=O)O)NC(=O)[C@H](CC(=O)O)NC1=O)NC(=O)[C@H](CC(C)(C)C)NC(=O)[C@H](CC(=O)O)N(C)C2=O (stereo partly drawn) [I-1165, Ac-PL3-NMeD-Npg-B5-Asp-Asp-Ala-Ala-Phe-Asn-S8-3Thi-BztA-Gln-NH2] | 6.14 |
| CC(=O)N1CCC[C@]12CC=CCCCC1(CCCC=CCCCOC(=O)N3CC[C@@](C(=O)N[C@@H](Cc4cccc(Cl)c4)C(=O)N[C@@H](Cc4csc5ccccc45)C(=O)N[C@@H](CCC(N)=O)C(N)=O)(C3)NC(=O)[C@H](CC(N)=O)NC(=O)[C@H](Cc3ccccc3)NC(=O)[C@H](C)NC(=O)[C@H](C)NC(=O)[C@H]([C@@H](C)O)NC(=O)[C@H](CC(N)=O)NC1=O)NC(=O)[C@H](CC(C)(C)C)NC(=O)[C@H](CC(=O)O)NC2=O (stereo partly drawn) [I-2001, Ac-PL3-Asp-Npg-B5-Asn-Thr-Ala-Ala-Phe-Asn-PyrS2-3C1F-BztA-Gln-NH2] | 5.35 |
| CC(=O)N1CCC[C@]12CCCCCCC[C@@](C)(C(=O)N[C@@H](CC(=O)O)C(=O)N[C@@H](CC(=O)O)C(=O)N[C@@H](C)C(=O)N[C@@H](C)C(=O)N[C@@H](Cc1ccccc1)C(=O)N[C@@H](CC(C)C)C(=O)NC(C)(C)C(=O)N[C@@H](Cc1ccsc1)C(=O)N[C@@H](Cc1csc3ccccc13)C(=O)N[C@@H](CCC(N)=O)C(N)=O)NC(=O)[C@H](CC(C)(C)C)NC(=O)[C@H](CC(=O)O)NC2=O [I-1981, Ac-PL3-Asp-Npg-S6-Asp-Asp-Ala-Ala-Phe-Leu-Aib-3Thi-BztA-Gln-NH2] | 6.25 |
| CC(=O)N1CCC[C@]12CC=CCCCC1(CCCC=CCCCOC(=O)N3CC[C@@](C(=O)N[C@@H](Cc4ccccc4)C(=O)N[C@@H](Cc4csc5ccccc45)C(=O)N[C@@H](CCC(N)=O)C(N)=O)(C3)NC(=O)[C@H](CC(C)C)NC(=O)[C@H](Cc3ccccc3)NC(=O)[C@H](C)NC(=O)[C@H](CCCCNC(C)C)NC(=O)[C@H]([C@@H](C)O)NC(=O)[C@H](CC(=O)O)NC1=O)NC(=O)[C@H](Cc1ccccc1)NC(=O)[C@H](CC(N)=O)NC2=O (stereo partly drawn) [I-1580, Ac-PL3-Asn-Phe-B5-Asp-Thr-iPrLys-Ala-Phe-Leu-PyrS2-Phe-BztA-Gln-NH2] | 5.85 |
| CC(=O)N1CCC[C@]12CC=CCCCC1(CCCC=CCCCOC(=O)N3CC[C@@](C(=O)N[C@@H](Cc4cccs4)C(=O)N[C@@H](Cc4csc5ccccc45)C(=O)N[C@@H](CCC(N)=O)C(N)=O)(C3)NC(=O)[C@H](CC(N)=O)NC(=O)[C@H](Cc3ccccc3)NC(=O)[C@H](C)NC(=O)[C@H](C)NC(=O)[C@H]([C@@H](C)O)NC(=O)[C@H](CC(N)=O)NC1=O)NC(=O)[C@H](CC(C)(C)C)NC(=O)[C@H](CC(=O)O)NC2=O (stereo partly drawn) [I-1736, Ac-PL3-Asp-Npg-B5-Asn-Thr-Ala-Ala-Phe-Asn-PyrS2-2Thi-BztA-Gln-NH2] | 6.34 |
| CC(=O)N1CCC[C@@]1(C)C(=O)N[C@@H](CC(=O)O)C(=O)N[C@@H](CC(C)(C)C)C(=O)NC(C)(C)C(=O)N[C@@H](CC(=O)O)C(=O)N[C@@H](CC(=O)O)C(=O)N[C@@H](C)C(=O)N[C@@H](C)C(=O)N[C@@H](Cc1ccccc1)C(=O)N[C@@H](CCC(N)=O)C(=O)NC(C)(C)C(=O)N[C@@H](Cc1ccsc1)C(=O)N[C@@H](Cc1csc2ccccc12)C(=O)N[C@@H](Cc1c[nH]cn1)C(=O)N[C@@H](CCCCN)C(N)=O [I-2231, Ac-MePro-Asp-Npg-Aib-Asp-Asp-Ala-Ala-Phe-Gln-Aib-3thi-BztA-His-Lys-NH2] (Ac-[αMeP]D[tBuAla][Aib]DDAAFQ[Aib][3Thi][Bta]HK-NH2) | 5.29 |
| CC(=O)N[C@]12CCN(C1)C(=O)OCC=CCCCC1(CCCC=CCCCOC(=O)N3CC[C@@](C(=O)N[C@@H](Cc4ccccc4C(F)(F)F)C(=O)N[C@@H](Cc4csc5ccccc45)C(=O)N[C@@H](CCC(N)=O)C(N)=O)(C3)NC(=O)[C@H](CC(C)C)NC(=O)[C@H](Cc3ccccc3)NC(=O)[C@H](C)NC(=O)[C@H](C)NC(=O)[C@H](Cc3cccc(C(=O)O)c3)NC(=O)[C@H](CC(=O)O)NC1=O)NC(=O)[C@H](CC(C)(C)C)NC(=O)[C@H](CC(=O)O)NC(=O)[C@H](C)NC2=O (stereo partly drawn) [I-2568, Ac-PyrR-Ala-Asp-Npg-B5-Asp-3COOHF-Ala-Ala-Phe-Leu-PyrS2-2F3MeF-BztA-Gln-NH2] | 5.32 |
| CC(=O)N1CCC[C@]12CC=CCCCC1(CCCC=CCCCOC(=O)N3CC[C@@](C(=O)N[C@@H](Cc4ccsc4)C(=O)N[C@@H](Cc4csc5ccccc45)C(=O)N[C@H](C(N)=O)C(C)C)(C3)NC(=O)[C@H](CC(N)=O)NC(=O)[C@H](Cc3ccccc3)NC(=O)[C@H](C)NC(=O)C(C)(C)NC(=O)[C@H]([C@@H](C)O)NC(=O)[C@H](CC(N)=O)NC1=O)NC(=O)[C@H](CC(C)(C)C)NC(=O)[C@H](CC(=O)O)NC2=O (stereo partly drawn) [I-2480, Ac-PL3-Asp-Npg-B5-Asn-Thr-Aib-Ala-Phe-Asn-PyrS2-3Thi-BztA-Val-NH2] | 6.32 |
| CC(=O)N1CCC[C@]12CC=CCCCC1(CCCC=CCCCOC(=O)N3CC[C@@](C(=O)N[C@@H](Cc4ccccc4)C(=O)N[C@@H](Cc4csc5ccccc45)C(=O)N[C@@H](CCC(N)=O)C(N)=O)(C3)NC(=O)[C@H](Cc3c[nH]cn3)NC(=O)[C@H](Cc3ccccc3)NC(=O)[C@H](C)NC(=O)[C@H](C)NC(=O)[C@H](CCC(N)=O)NC(=O)[C@H](CC(=O)O)NC1=O)NC(=O)[C@H](CC(C)(C)C)NC(=O)[C@H](CCO)NC2=O (stereo partly drawn) [I-2439, Ac-PL3-Hse-Npg-B5-Asp-Gln-Ala-Ala-Phe-His-PyrS2-Phe-BztA-Gln-NH2] | 5.56 |
| CC(=O)N1CCC[C@]12CC=CCCCC1(CCCC=CCCCCCC[C@@](C)(C(=O)N[C@@H](Cc3ccsc3)C(=O)N[C@@H](Cc3csc4ccccc34)C(=O)N[C@@H](CCC(N)=O)C(N)=O)NC(=O)[C@H](CC(N)=O)NC(=O)[C@H](Cc3ccccc3)NC(=O)[C@H](C)NC(=O)[C@H](C)NC(=O)[C@H](CN(CC(=O)O)Cc3c(F)c(F)c(F)c(F)c3F)NC(=O)[C@H](CC(=O)O)NC1=O)NC(=O)[C@H](CC(C)(C)C)NC(=O)[C@H](CC(=O)O)NC2=O (stereo partly drawn) [I-1624, Ac-PL3-Asp-Npg-B5-Asp-[Pfbn]GA-Ala-Ala-Phe-Asn-S8-3Thi-BztA-Gln-NH2] | 7.32 |
| CC(=O)N1CCC[C@]12CC=CCCCC1(CCCC=CCCCOC(=O)N3CC[C@@](C(=O)N[C@@H](Cc4ccsc4)C(=O)N[C@@H](Cc4csc5ccccc45)C(=O)N[C@@H](CCC(N)=O)C(N)=O)(C3)NC(=O)[C@H](CC(C)C)NC(=O)[C@H](Cc3ccccc3)NC(=O)[C@H](C)NC(=O)[C@H](C)NC(=O)[C@H](CN(CC(=O)O)CC(F)(F)F)NC(=O)[C@H](CC(=O)O)NC1=O)NC(=O)[C@H](CC1CCCCC1)NC(=O)[C@H](CC(=O)O)NC2=O (stereo partly drawn) [I-1775, Ac-PL3-Asp-Cha-B5-Asp-TfeGA-Ala-Ala-Phe-Leu-PyrS2-3Thi-BztA-Gln-NH2] | 7.82 |

same assay, conditions: read-out: beta-Catenin FP IC50

| Structure (SMILES) | pIC50 |
| --- | --- |
| CC(=O)N1CCC[C@]12CC=CCCCC1(CCCC=CCCCOC(=O)N3CC[C@@](C(=O)N[C@@H](Cc4ccccc4Cl)C(=O)N[C@@H](Cc4csc5ccccc45)C(=O)N4CCC[C@H]4CO)(C3)NC(=O)[C@H](CC(N)=O)NC(=O)[C@H](Cc3ccccc3)NC(=O)[C@H](C)NC(=O)[C@H](C)NC(=O)[C@H](CC(=O)O)NC(=O)[C@H](CC(=O)O)NC1=O)NC(=O)[C@H](CC(C)(C)C)NC(=O)[C@H](CC(=O)O)NC2=O (stereo partly drawn) [I-1084, Ac-PL3-Asp-Npg-B5-Asp-Asp-Ala-Ala-Phe-Asn-PyrS2-2C1F-BztA-Proo1] | 6.43 |
